Measurements as given in PubChem BioAssay AID330 (DTP/NCI, 2004).
Where “and” joins values, the source holds several entries; their conditions need not be identical. Equal entries are not always repeated. Inconclusive results and toxic doses are left out. How the source made its calls: active means survival T/C of 150% or more; inactive means T/C below 125% in these data.

Tested on: P388 leukemia ip, CD2F1 mice, survival T/C
Experiment: NCI In Vivo Anticancer Drug Screen. Data for tumor model P388 Leukemia (intraperitoneal) in CD2F1 (CDF1) mice
Conditions: endpoint: median survival time, higher = longer survival
Outline: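 Mice carrying the transplanted tumor received test compound or vehicle. Survival was recorded in each group, and the value is the treated-group measurement divided by that of the vehicle-treated control group.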

[1] = dose: 50.0 mg/kg/injection, schedule: Q01DX005 (ip), vehicle: Klucel (hydroxypropylcellulose) (HPC)
[2] = dose: 100.0 mg/kg/injection, schedule: Q01DX005 (ip), vehicle: Klucel (hydroxypropylcellulose) (HPC)
[3] = dose: 50.0 mg/kg/injection, schedule: Q01DX005 (ip), vehicle: saline with Tween-80
[4] = dose: 100.0 mg/kg/injection, schedule: Q01DX005 (ip), vehicle: saline with Tween-80
[5] = dose: 50.0 mg/kg/injection, schedule: Q01DX009 (ip), vehicle: saline with Tween-80
[6] = dose: 100.0 mg/kg/injection, schedule: Q01DX009 (ip), vehicle: saline with Tween-80
[7] = dose: 12.5 mg/kg/injection, schedule: Q01DX009 (ip), vehicle: saline with Tween-80
[8] = dose: 25.0 mg/kg/injection, schedule: Q01DX009 (ip), vehicle: saline with Tween-80
[9] = dose: 200.0 mg/kg/injection, schedule: Q01DX009 (ip), vehicle: saline with Tween-80

Measured: T/C

CCOC(=O)C1CC(=O)c2ccccc2C1 (stereo unspecified)
inactive: dose: 6.25 mg/kg/injection, schedule: Q01DX009 (ip), vehicle: distilled water + Tween-80 101 % of control | dose: 12.5 mg/kg/injection, schedule: Q01DX009 (ip), vehicle: distilled water + Tween-80 96 % of control | dose: 25.0 mg/kg/injection, schedule: Q01DX009 (ip), vehicle: distilled water + Tween-80 95 % of control | dose: 50.0 mg/kg/injection, schedule: Q01DX009 (ip), vehicle: distilled water + Tween-80 102 % of control | dose: 100.0 mg/kg/injection, schedule: Q01DX009 (ip), vehicle: distilled water + Tween-80 100 % of control | dose: 200.0 mg/kg/injection, schedule: Q01DX009 (ip), vehicle: distilled water + Tween-80 101 % of control | dose: 400.0 mg/kg/injection, schedule: Q01DX009 (ip), vehicle: distilled water + Tween-80 109 % of control

Brc1ccc(C(Nc2nncs2)Nc2nncs2)cc1
inactive: dose: 60.0 mg/kg/injection, schedule: Q01DX005 (ip), vehicle: saline with Tween-80 111 % of control | dose: 120.0 mg/kg/injection, schedule: Q01DX005 (ip), vehicle: saline with Tween-80 115 % of control | dose: 240.0 mg/kg/injection, schedule: Q01DX005 (ip), vehicle: saline with Tween-80 107 % of control

O=C1c2ccccc2C(=O)N1CCc1ccccc1Br
inactive: [1] 104 % of control | [2] 96 % of control

C=CC(C)(C)c1c2c(c(OC)c3ccc(=O)oc13)C=CC(C)(C)O2
inactive: dose: 25.0 mg/kg/injection, schedule: Q01DX005 (ip), vehicle: saline with Tween-80 105 % of control | [3] 99 % of control and 94 % of control | [4] 96 % of control

N#CC1C(=O)NC(=O)C(C#N)C1C(Cl)(Cl)Cl (stereo unspecified)
inactive: dose: 50.0 mg/kg/injection, schedule: Q01DX009 (ip), vehicle: Klucel (hydroxypropylcellulose) (HPC) 100 % of control | dose: 100.0 mg/kg/injection, schedule: Q01DX009 (ip), vehicle: Klucel (hydroxypropylcellulose) (HPC) 93 % of control | dose: 200.0 mg/kg/injection, schedule: Q01DX009 (ip), vehicle: Klucel (hydroxypropylcellulose) (HPC) 102 % of control

COc1cc2c(/C=N/Nc3ccccc3[N+](=O)[O-])c(Cl)[nH]c2cc1C
inactive: dose: 50.0 mg/kg/injection, schedule: Q01DX001 (ip), vehicle: Klucel (hydroxypropylcellulose) (HPC) 107 % of control | dose: 100.0 mg/kg/injection, schedule: Q01DX001 (ip), vehicle: Klucel (hydroxypropylcellulose) (HPC) 98 % of control and 87 % of control | dose: 200.0 mg/kg/injection, schedule: Q01DX001 (ip), vehicle: Klucel (hydroxypropylcellulose) (HPC) 98 % of control and 87 % of control | dose: 400.0 mg/kg/injection, schedule: Q01DX001 (ip), vehicle: Klucel (hydroxypropylcellulose) (HPC) 90 % of control

CSc1nc(N)c(NS(=O)(=O)c2cccc([N+](=O)[O-])c2)c(=O)[nH]1
inactive: dose: 60.0 mg/kg/injection, schedule: Q01DX005 (ip), vehicle: Klucel (hydroxypropylcellulose) (HPC) 92 % of control | dose: 120.0 mg/kg/injection, schedule: Q01DX005 (ip), vehicle: Klucel (hydroxypropylcellulose) (HPC) 94 % of control | dose: 240.0 mg/kg/injection, schedule: Q01DX005 (ip), vehicle: Klucel (hydroxypropylcellulose) (HPC) 88 % of control

COCCn1cc(F)c(=O)[nH]c1=O
inactive: dose: 30.0 mg/kg/injection, schedule: Q04DX002 (ip), vehicle: saline 110 % of control | dose: 60.0 mg/kg/injection, schedule: Q04DX002 (ip), vehicle: saline 104 % of control | dose: 100.0 mg/kg/injection, schedule: Q04DX002 (ip), vehicle: saline 115 % of control and 121 % of control | dose: 120.0 mg/kg/injection, schedule: Q04DX002 (ip), vehicle: saline 119 % of control | dose: 200.0 mg/kg/injection, schedule: Q04DX002 (ip), vehicle: saline 121 % of control | dose: 240.0 mg/kg/injection, schedule: Q04DX002 (ip), vehicle: saline 121 % of control | dose: 400.0 mg/kg/injection, schedule: Q04DX002 (ip), vehicle: saline 118 % of control and 121 % of control

CN(C)C(=S)c1cccc(-c2ccccn2)n1
inactive: dose: 50.0 mg/kg/injection, schedule: Q04DX003 (ip), vehicle: Klucel (hydroxypropylcellulose) (HPC) 95 % of control | dose: 100.0 mg/kg/injection, schedule: Q04DX003 (ip), vehicle: Klucel (hydroxypropylcellulose) (HPC) 96 % of control | dose: 200.0 mg/kg/injection, schedule: Q04DX003 (ip), vehicle: Klucel (hydroxypropylcellulose) (HPC) 91 % of control

Nc1ccc2oc3cccnc3c2c1
inactive: dose: 100.0 mg/kg/injection, schedule: Q04DX003 (ip), vehicle: saline 104 % of control | dose: 200.0 mg/kg/injection, schedule: Q04DX003 (ip), vehicle: saline 111 % of control | dose: 400.0 mg/kg/injection, schedule: Q04DX003 (ip), vehicle: saline 102 % of control

O=C1NC(=O)C(CCC[n+]2ccccc2)(c2ccccc2)C(=O)N1
inactive: [5] 107 % of control | [6] 107 % of control

COC(=O)C1=CO[C@@H](OC2OC(CO)C(O)C(O)C2O)[C@@H]2[C@@H](C)[C@@H](O)C[C@H]12 (stereo partly specified)
inactive: dose: 1.13 mg/kg/injection, schedule: Q01DX005 (ip), vehicle: water 100 % of control | dose: 2.25 mg/kg/injection, schedule: Q01DX005 (ip), vehicle: water 99 % of control | dose: 4.5 mg/kg/injection, schedule: Q01DX005 (ip), vehicle: water 93 % of control | dose: 9.0 mg/kg/injection, schedule: Q01DX005 (ip), vehicle: water 95 % of control

NC(=O)/C=C/C(N)=O
inactive: [7] 104 % of control | [8] 98 % of control | [5] 102 % of control | [6] 107 % of control | dose: 100.0 mg/kg/injection, schedule: Q04DX003 (ip), vehicle: saline with Tween-80 90 % of control | [9] 101 % of control | dose: 200.0 mg/kg/injection, schedule: Q04DX003 (ip), vehicle: saline with Tween-80 90 % of control

Nc1nc(=S)c2[nH]c(-c3ccccc3)nc2[nH]1
inactive: dose: 12.5 mg/kg/injection, schedule: Q01DX005 (ip), vehicle: other 106 % of control | dose: 25.0 mg/kg/injection, schedule: Q01DX005 (ip), vehicle: other 100 % of control | dose: 50.0 mg/kg/injection, schedule: Q01DX005 (ip), vehicle: other 102 % of control | dose: 100.0 mg/kg/injection, schedule: Q01DX005 (ip), vehicle: other 100 % of control

N#CCC(C#N)N1CCOCC1 (stereo unspecified)
inactive: [8] 100 % of control | [5] 100 % of control | [6] 100 % of control

CC(C)CCC1(CCCl)C(=O)NC(=O)NC1=O
inactive: [1] 102 % of control | [2] 106 % of control

CC1OC(OC2C(OC3C(OC4CCC5(C)C(CCC6(C)C5CC=C5C7CC(C)(C)CCC7(C(=O)O)CCC56C)C4(C)C)OCC(O)C3O)OC(CO)C(O)C2O)C(O)C(O)C1O (stereo unspecified)
inactive: dose: 3.75 mg/kg/injection, schedule: Q01DX005 (ip), vehicle: distilled water + Tween-80 98 % of control | dose: 7.5 mg/kg/injection, schedule: Q01DX005 (ip), vehicle: distilled water + Tween-80 100 % of control

CCOC(=O)COc1cc2c(cc1C(C)c1ccc(OCC)cc1)OCO2 (stereo unspecified)
inactive: [1] 93 % of control | [2] 93 % of control | dose: 200.0 mg/kg/injection, schedule: Q01DX005 (ip), vehicle: Klucel (hydroxypropylcellulose) (HPC) 88 % of control

OCC1CC2C=CC1O2 (stereo unspecified)
inactive: [3] 101 % of control | [4] 114 % of control | dose: 200.0 mg/kg/injection, schedule: Q01DX005 (ip), vehicle: saline with Tween-80 95 % of control

CC1CN(C)CCN1C (stereo unspecified)
inactive: [6] 100 % of control | [9] 100 % of control | dose: 400.0 mg/kg/injection, schedule: Q01DX009 (ip), vehicle: saline with Tween-80 95 % of control

CC1=C(O)c2ccccc2C(=O)C1=O
inactive: [7] 101 % of control | [8] 113 % of control and 90 % of control | [5] 105 % of control and 116 % of control | [6] 92 % of control | [9] 90 % of control
